{"source": "patent US9833425B2", "about": "“Gentisic acid is used to improve systemic hemodynamics, hepatic mitochondrial function and lactate acidemia in patients with septic shock” (priority 2015, dated 2017)", "key": {"[1]": {"tested_on": "canine model of septic shock (Pseudomonas aeruginosa)", "details": "for Arterial pH / LD (lactate dehydrogenase) / Oxygen delivery: mean ± SD", "description": "We used a bacteremic model of Pseudomonas aeruginosa in this study as previously described (20). We used this particular model, since we wanted to measure mitochondrial function and LA under conditions of an acute and intensive inflammatory response analogous to that which would occur in a severe bout of SS in the clinical condition. […] Over the course of the experiment, we studied the animals (18 to 26 kg) while anesthetized with sufentanil citrate (0.05-0.3 ug/kg/min) and midazolam (5 ug/kg/min), and while being ventilated receiving 100% oxygen to maintain arterial around PO2 ˜400 mmHg. We adjusted the ventilator rate over the course of the study to attenuate the development of the metabolic acidosis that is usually observed (20).\nTo assess hemodynamics in this model, we inserted vascular catheters under sterile conditions as previously described (20), after which we connected the catheters to pressure transducers (Cobe, Argon) that were referenced relative to the left atrium and connected to a chart recorder (Astro-Med, W Warwick, R.I.). To measure MAP, we inserted a polyethylene catheter into the right femoral artery, while to measure pulmonary vascular pressures, we inserted a Swanz-Ganz catheter (Edwards Lifesciences, Irvine, Calif.) by percutaneous techniques through the right jugular vein. From the Swanz-Ganz catheter, we obtained measurements of pulmonary arterial pressure (Ppa), wedge pressure (Pwp), and right atrial pressure (Rap), as well as determinations of thermodilution cardiac output (CO).\nFrom the hemodynamic measurements, we calculated SV from CO/heart rates (HR), stroke work (SW) from [SV*(MAP−Pwp)], and systemic vascular resistance (SVR) from [(MAP-Rap)/CO)*80]. We also normalized measurements of SV, SW, and CO and organ oxygen delivery (DO2) to body weight. We calculated DO2 from CO×Hb×1.34 ml oxygen per gram of Hb, since Hb was 100% saturated at a PO2 of ˜400 mmHg. From the arterial catheter and distal port of the Swanz-Ganz catheter, we also took arterial and mixed venous blood samples, respectively, for analyses of PO2, PCO2, and pH.\nIn addition, we placed another polyethylene catheter into the left jugular vein, also by percutaneous techniques, for infusion of the bacteria and intravenous fluids and for obtaining blood chemistry and hematological samples. Since the baseline Pwp found in this model usually averages≈8-10 mmHg, we infused normal saline solution as necessary to maintain Pwp relatively constant over the duration of this study. […] The Clinical Chemistry Laboratory at the Health Sciences Centre performed the clinical laboratory tests.\nWe included 5 groups of animals in the initial phase of this study. These groups included a septic control group, a non-septic control group, a norepinephrine (NE) septic group, a gentisic acid sodium salt (GSS) septic group, and a GSS non-septic group. In each group, we made baseline measurements of hemodynamics and blood parameters after approximately 1 hr period of stability. In the septic groups, after initiation of the bacterial infusion, we repeated the measurements in the septic shock condition. […] In the septic control group, after the SS condition, we started an infusion of 5% dextrose in water (D5W) at approximately 40 ml/hr for the remainder of the study, since D5W was the diluent for both the NE and GSS treatments.\nIn all groups, we then made posttreatment measurements at 3 hrs and 5 hrs after completion of the septic shock/sham-shock determinations.\nIn this supplemental study, we examined the effect of gallic acid on hemodynamics and mitochondrial function in our Pseudomonas aeruginosa model in a manner identical to that described for GSS treatment."}, "[2]": {"tested_on": "mitochondrial complex IV (cytochrome c oxidase)", "assay": "Enzymatic activity of hepatic mitochondrial complex IV", "assay_type": "biochemical, dog", "details": "hepatic mitochondria of treated septic dogs; mean ± SD", "excerpt": "As part of our assessment of mitochondrial function, we also measured the enzymatic activity of hepatic mitochondrial complex IV based on the rationale of Levy et al (10), since these investigators considered that dysfunction of complex IV was the most important determinant of abnormal mitochondrial function in SS. We determined complex IV activity spectrophotometrically by a temperature-controlled Ultrospec™ 2100 ultraviolet-visible spectrophotometer (Biopharmacia Biotech, Uppsala, Sweden) (17). Complex IV activity was measured at 25° C. by monitoring the absorbance decrease of reduced cytochrome c at 550 nm."}, "[3]": {"tested_on": "hepatic mitochondria", "assay": "Oxygen consumption rates of hepatic mitochondria harvested after in vivo treatment (Seahorse XF24)", "design": "species or system dog", "details": "treated septic dogs; FCCP 4 uM", "description": "After completion of the in-vivo measurements, we administered sodium pentobarbital (110 mg/kg) to euthanize the animal. In a subset of animals of each group, we immediately harvested a piece of liver and isolated the mitochondria as described by Schnaitman and Greenawalt (23). Briefly, we minced the extracted liver in mitochondrial isolation buffer (MSHE) that includes 70 mM sucrose, 210 mM mannitol, 5 mM HEPES, 1 mM EGTA, and fatty acid free bovine serum albumin (BSA). We then disrupted the tissue using a drill-driven glass/Teflon dounce homogenizer. We centrifuged the homogenate three times, after which we re-suspended the final pellet in a minimal volume of MSHE+BSA and determined protein (mg/ml). We diluted the mitochondrial preparation in cold mitochondrial assay solution (MAS) that contained 70 mM sucrose, 220 mM mannitol, 10 mM KH2PO4, 5 mM MgCl2, 2 mM HEPES, 1 mM EGTA, and BSA for plating directly onto the custom Seahorse 24-well culture dish (˜20 ug mitochondrial protein/50 ul per well; see further below). After centrifugation of the plate and addition of appropriate substrates, we viewed the mitochondria under a microscope to ensure consistent adherence to the well. We then transferred the plate to the XF24 Analyzer for initiation of the protocol as described below (17).\nTo examine mitochondrial function in this model, we used a novel new technology that is capable of measuring dynamic changes in mitochondrial function, not easily attainable by other technologies (17). The Seahorse® XF24 extracellular flux analyser (Seahorse Bioscience, MA, USA) refines the technology by which mitochondrial oxygen consumption can be measured. This technology uses a piston to reversibly enclose a small volume (7 ul) above the mitochondria that can monitor oxygen uptake in that volume for 2-5 min, then raises the piston, allowing the bulk incubation medium (˜1 ml) to re-equilibrate. The ability to make up to 4 additions during the experiment allows mitochondrial respiration to be measured under various metabolic conditions. This piece of equipment has never been used to measure mitochondrial function in SS.\nIn this protocol, we sequentially measured mitochondrial function under various metabolic conditions (17). To obtain basal OCR, we first added a substrate to the preparation that contained pyruvate (10 mM) and malate (2 mM). We then added ADP (adenosine-diphosphate; 4 mM) that allows ATP synthase to function, producing an increase in OCR (coupled OCR) that is termed “state3ADP”. When the ATP/ADP ratio approaches equilibrium, pmf rises, after which proton reentry through the synthase stops and respiration slows. We terminated coupled respiration (i.e. state3ADP) by the addition of the ATP synthase inhibitor oligomycin (2.0 uM) in which we achieved “stateoligomycin” where ATP recycling cannot contribute and there is a stable decrease in OCR. We then added the protonophore, FCCP (4 uM; carbonyl cyanide p-trifluoromethoxy-phenylhydrazone). FCCP leads to uncoupled respiration in which we previously titrated the concentration of FCCP to yield a maximal effect. In mitochondria in which ATP synthase activity is a limiting factor, uncoupled respiration may be greater than coupled respiration. […] We finally added rotenone (R; 2 uM) and antimycin A (AA; 2 uM) which are inhibitors of the electron transport chain (ETC) complexes, I and III, respectively. When added to the mitochondrial preparation, these inhibitors produce a marked decline in mitochondrial respiration since the electron transport chain is inhibited.\nWith each treatment group, we obtained measurements of basal OCR, coupled OCR (i.e. state3ADP), and maximal OCR. In addition, we calculated coupled and uncoupled respiratory control ratios from state3ADP/stateoligomycin and uncoupled respiration/state FCCP/stateoligomycin, respectively. […]"}, "[4]": {"details": "septic dogs, 3 hrs posttreatment"}, "[5]": {"details": "septic dogs, 5 hrs posttreatment"}, "[6]": {"details": "septic dogs, baseline (before bacteria/treatment)"}, "[7]": {"details": "septic dogs, septic shock (before treatment)"}}, "note": "Entries after “also recorded” stand apart in the source; their conditions may differ. Read-outs that look alike come from different tables or passages of the source. Marks after values point to notes of the source that are not given here.", "data": [{"smiles": "NC[C@H](O)c1ccc(O)c(O)c1", "note": "[NE, norepinephrine]", "values": [{"measurement": "effect of treatment on troponin (index of myocardial injury)", "setting": "[1]; dog, in vivo", "result": "increased in the NE septic group"}, {"measurement": "effect of treatment on stroke work index", "setting": "[1]; septic dogs, 3 hr and 5 hr vs septic control group, did not reach statistical significance", "result": "an increase in stroke work index"}, {"measurement": "effect of treatment on systemic vascular resistance (SVR)", "setting": "[1]; septic dogs, 3 hrs and 5 hrs posttreatment vs septic shock condition", "result": "increased SVR back to the baseline value; also recorded: an increase in SVR"}, {"measurement": "Arterial pH", "setting": "[1]; [4]", "result": "7.20 ± .04*^+$"}, {"measurement": "LD (lactate dehydrogenase)", "setting": "[1]; [4]", "result": "315 ± 113*^+$ IU"}, {"measurement": "Oxygen delivery", "setting": "[1]; [4]", "result": "29 ± 8", "unit": "mL/min/kg"}, {"measurement": "Arterial pH", "setting": "[1]; [5]", "result": "7.16 ± 0.06*^+$"}, {"measurement": "LD (lactate dehydrogenase)", "setting": "[1]; [5]", "result": "409 ± 167*^+$^ IU"}, {"measurement": "Oxygen delivery", "setting": "[1]; [5]", "result": "28 ± 10", "unit": "mL/min/kg"}, {"measurement": "Arterial pH", "setting": "[1]; [6]", "result": "7.38 ± .05"}, {"measurement": "LD (lactate dehydrogenase)", "setting": "[1]; [6]", "result": "43 ± 23", "unit": "IU"}, {"measurement": "Oxygen delivery", "setting": "[1]; [6]", "result": "20 ± 3", "unit": "mL/min/kg"}, {"measurement": "effect of treatment on mean arterial pressure (MAP)", "setting": "[1]; septic dogs, infusion started at septic shock condition, 3 hr and 5 hr post treatment", "result": "increased MAP back to the baseline value; also recorded: return in MAP to baseline"}, {"measurement": "effect of treatment on blood lactate concentration", "setting": "[1]; septic dogs, over the course of the study", "result": "serum lactate increased; also recorded: significantly increased"}, {"measurement": "Arterial pH", "setting": "[1]; [7]", "result": "7.26 ± .04*^+$"}, {"measurement": "LD (lactate dehydrogenase)", "setting": "[1]; [7]", "result": "177 ± 97*^+ IU"}, {"measurement": "Oxygen delivery", "setting": "[1]; septic dogs, septic shock condition (before treatment)", "result": "26 ± 11", "unit": "mL/min/kg"}, {"measurement": "effect of treatment on oxygen delivery (DO2)", "setting": "[1]; septic dogs, vs septic control group and gentisic septic group", "result": "increase in DO2"}, {"measurement": "enzymatic activity of mitochondrial complex IV", "setting": "[2]", "result": "3.89±0.33", "unit": "umol/min/mg protein"}, {"measurement": "maximal (uncoupled) respiration (OCR after FCCP) of hepatic mitochondria", "setting": "[3]", "result": "restore the increase in OCR in response to FCCP"}]}]}
